Experimental findings from PubChem BioAssay (NCI) are described below.

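Five compound concentrations were applied to cells in 96-well plates for 48 hours; endpoints were derived by simple linear interpolation of the resulting dose-response curve. The concentration for full growth arrest is given as TGI.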

Among the test systems are 786-0 renal; A498 renal; DU-145 prostate; HCT-116 colon; HCT-15 colon; OVCAR-4 ovarian; SK-MEL-28 melanoma; SW-620 colon; NCI/ADR-RES ovarian; T-47D breast.
Common to all, as to test: NCI tumour cell line growth inhibition, 48 h

Take `CC1(C)OC2OC(COC(=O)C=[N+]=[N-])C3OC(C)(C)OC3C2O1` (stereo unspecified): the TGI with 786-0 renal, in the experiment on A498 renal, with DU-145 prostate, in the experiment with HCT-116 colon, in the experiment on HCT-15 colon and in the experiment on OVCAR-4 ovarian was over 100 µM each time. The TGI in the experiment on SK-MEL-28 melanoma and with SW-620 colon was over 100 µM in each case.

Consider `COC(=O)C12Oc3ccc(-c4ccc5c(c4O)C(=O)C4=CCC(C)C(O)C4(C(=O)OC)O5)c(O)c3C(=O)C1=CCC(C)C2O` (stereo unspecified), for which the TGI in the experiment with 786-0 renal is 2.98 µM; with A498 renal it was 3.54 µM; with HCT-116 colon, 2.15 µM; in the experiment on HCT-15 colon it was 3.46 µM; with OVCAR-4 ovarian, 6.1 µM; with SK-MEL-28 melanoma, 3.51 µM. The compound also yielded a TGI in the experiment on SW-620 colon of 2.65 µM.

For the compound `CC(C)CCCC(C)[C@H]1CCC2[C@@H]3CCC4Cc5nc6c(nc5C[C@]4(C)C3CC[C@@]21C)CC1CC[C@@H]2C(C[C@@H](O)[C@@]3(C)C2C[C@@H]2OC4(CCC(C)CO4)C(C)[C@@H]23)[C@@]1(C)C6` (stereo partly specified), the TGI in the experiment on 786-0 renal, in the experiment on DU-145 prostate, with HCT-116 colon, in the experiment on HCT-15 colon, in the experiment on NCI/ADR-RES ovarian and with OVCAR-4 ovarian was over 100 µM throughout. For the same compound, the TGI in the experiment with SK-MEL-28 melanoma, in the experiment on SW-620 colon and with T-47D breast was over 100 µM in each case.

For the compound `O=C1C(Br)=CC2([N+](=O)[O-])CCNc3c(O)c4c5c(c3C2=C1Br)=NCCC=5C=N4` (stereo unspecified), the TGI in the experiment on A498 renal was found to be 14.5 µM; in the experiment on HCT-116 colon, 1.09 µM; in the experiment on HCT-15 colon, 2.16 µM; in the experiment with NCI/ADR-RES ovarian, 6.52 µM; with OVCAR-4 ovarian it was 3.7 µM; in the experiment with SK-MEL-28 melanoma, 9.95 µM. In the experiment with SW-620 colon, this compound returned a TGI of 4 µM.

`O=C(Nc1sccc1S(=O)(=O)c1ccccc1)c1cccnc1`: the TGI in the experiment with 786-0 renal is over 100 µM; with DU-145 prostate it was over 100 µM; with HCT-116 colon it was over 100 µM; with HCT-15 colon, over 100 µM; in the experiment on NCI/ADR-RES ovarian, over 52.7 µM; in the experiment on OVCAR-4 ovarian it was over 100 µM. For the same compound, the TGI in the experiment on SK-MEL-28 melanoma, in the experiment with SW-620 colon and with T-47D breast was over 100 µM in each case.

For the compound `CCOC(=O)/C(O)=C1\C(=O)N(C)C(=O)C1c1ccc(OC)c(OC)c1` (stereo unspecified), the TGI with A498 renal, in the experiment with HCT-116 colon, in the experiment with HCT-15 colon, with NCI/ADR-RES ovarian, in the experiment on OVCAR-4 ovarian and in the experiment with SK-MEL-28 melanoma was over 100 µM each time. For the same compound, the TGI in the experiment on SW-620 colon was over 31.6 µM.

Turning to `Cc1c(-c2c(C)c3ccccc3n2S(=O)(=O)c2ccccc2)n(S(=O)(=O)c2ccccc2)c2ccccc12`, the TGI with 786-0 renal is 42.9 µM; in the experiment with A498 renal, over 100 µM; with DU-145 prostate it was over 33.5 µM; with HCT-116 colon, over 100 µM; in the experiment on HCT-15 colon, over 100 µM; in the experiment with NCI/ADR-RES ovarian, over 100 µM. Besides, the TGI with OVCAR-4 ovarian, in the experiment with SK-MEL-28 melanoma and in the experiment with SW-620 colon was over 100 µM in each case.

For `CCC(CCCN)Nc1cc(OC)cc2cccnc12` (stereo unspecified), the TGI in the experiment with 786-0 renal, in the experiment with A498 renal, in the experiment on DU-145 prostate, with HCT-116 colon, in the experiment with HCT-15 colon and with NCI/ADR-RES ovarian was over 100 µM in each case. Also, the TGI in the experiment with OVCAR-4 ovarian, in the experiment on SK-MEL-28 melanoma and in the experiment with SW-620 colon was over 100 µM throughout.

As to `CCCC/C=C1\CCC(CN2CCCCC2)C1=O` (stereo unspecified), the TGI is 31.6 µM in the experiment on A498 renal; over 100 µM with DU-145 prostate; 36.7 µM in the experiment with HCT-116 colon; 20.6 µM with HCT-15 colon; over 100 µM with NCI/ADR-RES ovarian; 48 µM in the experiment with OVCAR-4 ovarian. The TGI in the experiment with SK-MEL-28 melanoma was 36.7 µM; with SW-620 colon, 14.4 µM; in the experiment on T-47D breast, over 100 µM.

Consider `Oc1ccc(Cl)cc1C1=N/C(=N\CN2CCN(C/N=C3/N=C(c4cc(Cl)ccc4O)CC(c4ccccc4)N3)CC2)NC(c2ccccc2)C1` (stereo unspecified), for which the TGI in the experiment with 786-0 renal is 65.4 µM; in the experiment on A498 renal, over 100 µM; in the experiment on DU-145 prostate it was over 100 µM; in the experiment with HCT-116 colon, 46.3 µM; in the experiment with HCT-15 colon, over 100 µM; with NCI/ADR-RES ovarian, over 100 µM. For the same compound, the TGI in the experiment on OVCAR-4 ovarian is 78 µM; in the experiment with SK-MEL-28 melanoma it was over 100 µM; in the experiment with SW-620 colon, over 100 µM.

With `CCCCOC(=O)CNC(=O)OCCCCC#CC#CCCCCOC(=O)NCC(=O)OCCCC`, the TGI with 786-0 renal, in the experiment on A498 renal, with HCT-116 colon, with OVCAR-4 ovarian and in the experiment with SW-620 colon was over 100 µM each time.

Take `CCCCCc1cc(OC(=O)c2c(O)cc(OC)cc2CCCCC)cc(O)c1C(=O)O`: the TGI amounted to 30.3 µM in the experiment on 786-0 renal; 35.6 µM with A498 renal; 30.7 µM in the experiment with HCT-15 colon; 41.3 µM in the experiment on OVCAR-4 ovarian; 32.9 µM with SK-MEL-28 melanoma; 36 µM with SW-620 colon.

Turning to `CCC(C)[C@H](NC(=O)N[C@H](C)c1ccccc1)C(=O)OC` (stereo partly specified), the TGI with 786-0 renal, in the experiment with A498 renal, in the experiment on DU-145 prostate, in the experiment on HCT-116 colon, in the experiment on HCT-15 colon and with OVCAR-4 ovarian was over 100 µM each time. Further, the TGI in the experiment on SK-MEL-28 melanoma and in the experiment on SW-620 colon was over 100 µM throughout.

For the compound `Cc1ccc(C)n2c1nc1ccc3ccccc3c12`, the TGI in the experiment with 786-0 renal, with DU-145 prostate, in the experiment on HCT-15 colon, with NCI/ADR-RES ovarian, in the experiment on SK-MEL-28 melanoma and with SW-620 colon was over 100 µM each time. Besides, the TGI in the experiment on T-47D breast was over 100 µM.

In the case of `COc1ccc(N[C@H](CS(=O)c2ccc(C)cc2)c2ccc(F)cc2)cc1` (stereo partly specified), the TGI with 786-0 renal, with DU-145 prostate, in the experiment on HCT-116 colon, with HCT-15 colon, in the experiment with NCI/ADR-RES ovarian and in the experiment with OVCAR-4 ovarian was over 100 µM throughout. Further, the TGI with SK-MEL-28 melanoma, with SW-620 colon and in the experiment with T-47D breast was over 100 µM each time.

For the compound `COc1ccc(CCn2cnc3ccccc32)cc1`, the TGI in the experiment with 786-0 renal, in the experiment with A498 renal, with DU-145 prostate, with HCT-116 colon, with HCT-15 colon and in the experiment with NCI/ADR-RES ovarian was over 100 µM each time. Also, the TGI in the experiment on OVCAR-4 ovarian and in the experiment with SW-620 colon was over 100 µM throughout.
